≈ marks a conversion by molar mass, not a printed value.
How the values were obtained:
[1] = target: T1, Human acid ceramidase (hACR) (Homo sapiens, UniProt Q13510); assay: Acid ceramidase biochemical fluorescent assay (cell lysates overexpressing acid ceramidase, substrate Rbm14-12); conditions: 10 μg lysate protein, 1 hr preincubation at RT, pH 4.5, Rbm14-12 6.3 μM
T1 construct: expressed in transfected cells; lysates of cells overexpressing acid ceramidase
T1 sequence (Q13510 22-395): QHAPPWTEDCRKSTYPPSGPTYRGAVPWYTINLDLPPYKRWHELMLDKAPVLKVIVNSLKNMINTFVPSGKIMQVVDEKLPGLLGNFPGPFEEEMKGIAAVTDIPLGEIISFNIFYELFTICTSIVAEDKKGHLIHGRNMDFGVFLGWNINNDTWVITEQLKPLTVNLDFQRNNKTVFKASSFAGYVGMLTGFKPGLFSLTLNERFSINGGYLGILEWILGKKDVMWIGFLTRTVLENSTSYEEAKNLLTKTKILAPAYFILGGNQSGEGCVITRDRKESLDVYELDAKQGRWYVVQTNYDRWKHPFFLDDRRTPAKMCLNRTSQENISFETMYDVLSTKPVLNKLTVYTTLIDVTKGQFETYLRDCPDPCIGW
Protocol: The ability of exemplary compounds to inhibit acid ceramidase was measured.
Cell lysates overexpressing acid ceramidase were used as the enzyme source for compound potency determination in a biochemical fluorescent assay. Briefly, compounds were preincubated with 10 μg protein of cell lysates in a dose-response manner for 1 hr at RT in the assay buffer containing 25 mM NaAC and 100 mM NaCl, pH 4.5. The reaction was initiated by the addition of substrate Rbm14-12 at a final concentration of 6.3 μM. The reaction was run at RT for 1 hr before it was stopped by the addition of the stopping buffer containing 20% methanol (v/v), 1 mg/ml NaIO4, 0.1 M glycine, pH 10.6. The samples were incubated with the stopping buffer at RT for 1 hr to allow the fluorescent product to be formed. Finally the plate was read with SpectraMax i3 plate reader (Molecular Devices) at ex360 nm and em446 nm. Data were collected and used to determine the IC50 values of compounds by curve fitting to the four-parameter inhibition equation.
The symbol “A” indicates inhibition of less than 0.2 μM; the symbol “B” indicates inhibition in the range of 0.2 μM up to 1 μM; and the symbol “C” indicates inhibition of greater than 1 μM.

[2] = Compound solubility in water; assay type: physicochemical; conditions: read-out: Solubility in H2O

| IC50 [1] [nM] | solubility [2] [µM] | SMILES |
| --- | --- | --- |
| > 1000 | 20.5 (≈ 7.64 µg/mL) | Cn1c(=O)oc2cc(N3CCN(C(=O)NCCC4CC4)C(C)(C)C3)ccc21 [Example 53, N-(2-Cyclopropylethyl)-2,2-dimethyl-4-(3-methyl-2-oxo-1,3-benzoxazol-6-yl)piperazine-1-carboxamide] |
| 200 to 1000 | 2.4 (≈ 0.899 µg/mL) | CCCCCNC(=O)N1CCN(c2ccc3c(c2)oc(=O)n3C)CC1(C)C [Example 54, 2,2-Dimethyl-4-(3-methyl-2-oxo-1,3-benzoxazol-6-yl)-N-pentyl-piperazine-1-carboxamide] |
| 200 to 1000 | 3.5 (≈ 1.53 µg/mL) | Cn1c(=O)oc2cc(N3CCN(C(=O)NCCOCc4ccccc4)C(C)(C)C3)ccc21 [Example 57, N-(2-Benzyloxyethyl)-2,2-dimethyl-4-(3-methyl-2-oxo-1,3-benzoxazol-6-yl)piperazine-1-carboxamide] |
| < 200 | 41.8 (≈ 20.6 µg/mL) | CN(C)CCn1c(=O)oc2cc(N3CCN(C(=O)NCCCCc4ccccc4)C(C)(C)C3)ccc21 [Example 58, 4-[3-[2-(Dimethylamino)ethyl]-2-oxo-1,3-benzoxazol-6-yl]-2,2-dimethyl-N-(4-phenylbutyl)piperazine-1-carboxamide] |
| < 200 | 0.5 (≈ 0.218 µg/mL) | CC1CN(c2ccc3c(c2)oc(=O)n3C)CC(C)N1C(=O)NCCCCc1ccccc1 (stereo not shown) [Example 59, 2,6-Dimethyl-4-(3-methyl-2-oxo-1,3-benzoxazol-6-yl)-N-(4-phenylbutyl)piperazine-1-carboxamide] |
| > 1000 | 51.4 (≈ 21.7 µg/mL) | Cn1c(=O)oc2cc(N3CCN(C(=O)NCCCCc4ccccc4)CC3=O)ccc21 [Example 63, 4-(3-Methyl-2-oxo-1,3-benzoxazol-6-yl)-3-oxo-N-(4-phenylbutyl)piperazine-1-carboxamide] |
| < 200 | 6.8 (≈ 3.06 µg/mL) | Cn1c(=O)oc2cc(N3CCN(C(=O)NCCCCc4ccccc4)C(C)(C)C3=O)ccc21 [Example 64, 2,2-Dimethyl-4-(3-methyl-2-oxo-1,3-benzoxazol-6-yl)-3-oxo-N-(4-phenylbutyl)piperazine-1-carboxamide] |
| < 200 | 18.9 (≈ 8.52 µg/mL) | Cn1c(=O)oc2cc(N3CC(C)(C)N(C(=O)NCCCCc4ccccc4)CC3=O)ccc21 [Example 65, 2,2-Dimethyl-4-(3-methyl-2-oxo-1,3-benzoxazol-6-yl)-5-oxo-N-(4-phenylbutyl)piperazine-1-carboxamide] |

— US20220402901A1 (Bial - R&D Investments, S.A., priority 2019, published 2022)
